Reference: paper PMC6651387, “Fine-Tuning the Activation Mode of an 1,3-Indandione-Based Ruthenium(II)-Cymene Half-Sandwich Complex by Variation of Its Leaving Group” (Molecules, 2019)

Tests used:
[1] = system: SW480 (colon cancer) cells; experiment: MTT antiproliferative assay, SW480; type: cell-based, human; settings: exposure time 96 h, means ± standard deviations
Protocol: (§1) CH1/PA-1 (ovarian teratocarcinoma) cells were a generous gift from Lloyd R. Kelland (CRC Centre for Cancer Therapeutics, Institute of Cancer Research, Sutton, UK). A549 (non-small cell lung cancer), SW480, and HCT116 (both colon cancer) cells were kindly provided by the Institute of Cancer Research, Department of Medicine I, Medical University of Vienna, Austria. All cell lines were grown as monolayer cultures in Eagle’s MEM supplemented with L-glutamine (4 mM), sodium pyruvate (1 mM) and 1% (v/v) non-essential amino acid solution (all from Sigma-Aldrich) and 10% (v/v) heat-inactivated fetal calf serum (FCS, BioWest) in 75-cm^2 flasks (Starlab) at 37 °C under a humidified atmosphere containing 5% CO2 in air. […] After 24 h, test compounds were dissolved in DMSO (Fisher Scientific), serially diluted in complete MEM not to exceed a final DMSO content of 0.5% (v/v) and added in 100 μL per well. After 96 h, the drug-containing medium was replaced with 100 µL of RPMI 1640/MTT mixture, i. e., 6 parts of RPMI 1640 medium (Sigma-Aldrich; supplemented with 10% heat-inactivated fetal bovine serum and 4 mM L-glutamine), 1 part of MTT solution in phosphate-buffered saline (5 mg/mL; both from Sigma-Aldrich). After incubation for 4 h, the MTT-containing medium was replaced with 150 μL DMSO per well to dissolve the formazan product formed by viable cells. Optical densities at 550 nm (and at the reference wavelength of 690 nm) were measured with a microplate reader (ELx808, Bio-Tek). The IC50 values relative to untreated controls were interpolated from concentration–effect curves. At least three independent experiments were performed, each with triplicates per concentration level.

SW480 cells = experiment: Cellular accumulation by ICP-MS quantification of ruthenium (or platinum); type: cell-based, human; settings: 50 µM; for cellular ruthenium values: ICP-MS; for cellular accumulation, fg Ru or Pt/Cell: exposure time 2 h, ICP-MS of ruthenium
Protocol: Ruthenium accumulation was measured by means of inductively coupled plasma mass spectrometry (ICP-MS) upon 2 h exposure of SW480 cells to 50 µM of each compound.
Cellular accumulation of the compounds was studied based on a previously described method with modifications as follows: SW480 cells with a number of 1.8 × 10^5 per well were seeded into 12-well plates in aliquots of 1 mL complete MEM and incubated at 37 °C for 24 h. Then, cells were exposed for 2 h at 37 °C to 50 μM solutions of the test compounds (containing 0.5% DMSO) in 500 µL of fresh complete MEM upon exchange of the medium. Afterwards, cells were washed three times with PBS, and lyzed with 0.4 mL sub-boiled HNO3 per well for 1 h at room temperature. Ruthenium content was quantified by ICP-MS using an Agilent 7500ce quadrupole ICP-MS instrument (Agilent Technologies, Waldbronn, Germany) equipped with a CETAC ASX-520 autosampler (Nebraska, USA) and a MicroMist nebulizer. Ruthenium and indium standards were obtained from CPI International (Amsterdam, The Netherlands). The instrument was equipped with nickel cones and operated at an RF power of 1560 W, with argon as the plasma gas (15 L/min), carrier gas (1.0–1.1 L/min) and make-up gas (0.1–0.2 L/min). The Agilent MassHunter software package (Workstation Software, Version B.01.01, Build 123.11, Patch 4, 2012) was used for data processing. Results are based on at least three independent experiments, each comprising triplicate samples. The instrument was tuned on a daily basis for maximum sensitivity and doubly charged species as well as oxide rates were <5%.

[2] = system: HCT116 (colon cancer) cells; experiment: MTT antiproliferative assay, HCT116; type: cell-based, human; settings: exposure time 96 h, means ± standard deviations
Protocol: as §1

[3] = system: A549 (non-small cell lung cancer) cells; experiment: MTT antiproliferative assay, A549; type: cell-based, human; settings: exposure time 96 h, means ± standard deviations
Protocol: as §1

[4] = Lipophilicity by RP-UHPLC capacity factors (logkw, Φ0); type: physicochemical; settings: for Intercept logkw: RP-UHPLC, MeOH/0.1% formic acid in water, 25 °C, logk extrapolated to 100% water; for Φ0: percentage of methanol in the eluent at which logk is zero, Φ0 = −logkw/S; for Slope S: slope of logk against % organic eluent (MeOH)
Excerpt: It stands to reason that the higher the lipophilicity, the higher the cell accumulation; as far as passive diffusion is concerned, the higher efficiency with which normal cell function is compromised. As a consequence, lipophilicity is an important factor in drug development, described by the partition coefficient logP, which is routinely determined by the distribution of a compound in 1-octanol/water. However, 1-octanol, a solvent said to closely mimic the solubilizing behavior of cell membranes, forms emulsions with water. Additionally, the shake-flask method, seemingly easy, requires long sample preparation, has a low sample throughput, and lacks reproducibility, as it hinges on exact temperature control and consistent equilibration time allotted for every analyte. The time-consuming nature of this method may also lead to decomposition of the analyte. A concentration-, flow rate-, and column length-independent method is the determination of the capacity factor (k) via HPLC. The capacity factor is a measure for the equilibrium concentration between a polar phase (eluent) and an apolar phase (C18 column coating) and higher resemblance to the partition coefficient in […]. […] The percentage of methanol in the eluent at which logk is equal to zero is Φ0 [27, 28, 29].
The capacity factors k were determined with the use of an RP-UHPLC. The necessary chromatograms were recorded with a Dionex UltiMate 3000 RS UHPLC system (Thermo Fisher Scientific, Bedford, MA, USA) controlled by the Dionex Chromeleon 7.2 software. […] The capacity factors were then calculated as logk = log[(tR − t0)/t0], where tR and t0 are the retention times of the analyte and the dead time marker, respectively, at the respective MeOH:0.1% FA in water ratio. Every retention time was determined in isocratic mode for the different eluent ratios to obtain capacity factors in the linear range (−0.5 ≤ logk ≤ 1.5) in triplicate. A plot of logk against the % of the organic eluent yielded logkw (intercept) and S (slope). Φ0, the factor most closely resembling logP, was then determined as follows: Φ0 = −logkw/S [28].

Row | SMILES | IC50 [1] | cellular ruthenium accumulation relative to complex 1d (SW480 cells; 2 h) | cellular ruthenium values (SW480 cells; 2 h) | cellular accumulation, fg Ru or Pt/Cell (SW480 cells) | IC50 [2] | IC50 [3] | Intercept logkw [4] | Φ0 [4] | Slope S [4]
1 | Cc1ccc(C(C)C)cc1.O=C1C2=C(NCc3ccccc3)[O][Ru-]([Cl])[O+]=C2c2ccccc21 [1a] | 12.4 ± 0.4 µM | almost fiftyfold lower | < 10 fg/cell | 8.4 ± 2.8 fg Ru or Pt/Cell | 24.8 ± 6.4 µM | 23.4 ± 2.5 µM | 5.41 | 63.19 | −0.0855
2 | Cc1ccc(C(C)C)cc1.Cn1ccnc1.F[P-](F)(F)(F)(F)F.O=C1C(=C(NCc2ccccc2)[O][Ru+])C(=O)c2ccccc21 [1b] | 10.9 ± 1 µM | – | – | 97 ± 28 fg Ru or Pt/Cell | 24.6 ± 8.5 µM | 21.4 ± 1.7 µM | 5.49 | 61.84 | −0.0888
3 | Cc1ccc(C(C)C)cc1.F[P-](F)(F)(F)(F)F.O=C1C2=C(NCc3ccccc3)[O][Ru-]([n+]3ccc[nH]3)[O+]=C2c2ccccc21 [1c] | 15.2 ± 0.6 µM | – | – | 67 ± 27 fg Ru or Pt/Cell | 22.4 ± 6 µM | 22.9 ± 3.5 µM | 5.36 | 63.72 | −0.0841
4 | Cc1ccc(C(C)C)cc1.F[P-](F)(F)(F)(F)F.O=C1C2=C(NCc3ccccc3)[O][Ru-]([n+]3c[nH]c4ccccc43)[O+]=C2c2ccccc21 [1d] | 8.8 ± 1.3 µM | – | > 400 fg/cell | 405 ± 128 fg Ru or Pt/Cell | 18.8 ± 5.8 µM | 19 ± 0.8 µM | 5.55 | 65.87 | −0.0843
5 | Cc1ccc(C(C)C)cc1.F[P-](F)(F)(F)(F)F.O=C1C2=C(NCc3ccccc3)[O][Ru-]([n+]3cc4ccccc4[nH]3)[O+]=C2c2ccccc21 [1e] | 16.8 ± 3.1 µM | – | – | 114 ± 35 fg Ru or Pt/Cell | 25.1 ± 7.1 µM | 23.7 ± 6.4 µM | 5.94 | 68.88 | −0.0863
6 | Cc1ccc(C(C)C)cc1.F[P-](F)(F)(F)(F)F.O=C1C2=C(NCc3ccccc3)[O][Ru-]([NH+]3CCOCC3)[O+]=C2c2ccccc21 [1g] | 9.2 ± 1.8 µM | – | – | 123 ± 32 fg Ru or Pt/Cell | 23.8 ± 7.6 µM | 18.9 ± 1.4 µM | 5.14 | 59.73 | –0.0860
